The subject of experiment [1] is OsGSTF5. The experiment in a line: Pyroxasulfone metabolizing activity based on fatty acid content in cultured rice cells. The conditions noted are these: cultured rice cells with OsGSTF5 gene; 10^−6 M treatment group. The experiment is classed as cell-based. The protocol: (§1) The transgenic cultured rice cells thus prepared were used for liquid culture in the presence of pyroxasulfone. Pyroxasulfone was added to the liquid medium as an acetone solution. The final acetone concentration was 0.1%. When liquid culture was carried out, cultured rice cells transformed with KLB-279 (a plasmid comprising Act1p (rice actin 1 promoter)::sGFP::NOSt incorporated into the MCS of PalSelect R-4) were designated as the control samples. Liquid culture was carried out as described below. […]
(§2) Fatty acid was extracted using undecenoic acid (C11:1) as an internal standard. As analytical standards, Supelco FAME mix containing C14:0, C16:0, C16:1, C18:0, C18:1, C18:2, C18:3, C20:0, C22:0, C22:1, and C24:0 and other fatty acid methyl esters (C11:1, C15:0, C20:1, and C26:0) were used, and calibration curves thereof were prepared, followed by quantification. […] Quantitative and qualitative analyses were carried out as methyl esters, although fatty acid methyl esters were converted into fatty acids at the time of quantitative analysis. […]

The test system of experiment [2] is OsGSTU5. The experiment is described as above. The experiment is classed as cell-based. The conditions noted are these: cultured rice cells with OsGSTU5 gene; 10^−6 M treatment group. How it is done: as §1, §2
For experiment [3], the system named is wild-type rapeseed plants (variety: Westar). Nature of the experiment: Rapeseed sensitivity test 1 (post-sowing/pre-emergence soil treatment), wild type. In kind it is in vivo, Brassica napus. How it is done:
Wild-type rapeseed plants (variety: Westar) and transgenic rapeseed plants comprising the wheat GST gene introduced therein were subjected to Rapeseed sensitivity test 1 in plastic pots (length: 8 cm; width: 8 cm; height: 6 cm). The test was carried out in Fujino soil (sandy loam soil), and 4 seeds of wild-type rapeseed and 8 seeds of transgenic rapeseed were sown in each pot (sowing depth: 1 cm). Water dispersible granules containing 50% pyroxasulfone were applied at 5 different doses of 1, 4, 16, 63, and 250 g a.i./ha (n=3). Immediately after pyroxasulfone treatment, about 1 mm of rain was fallen with the use of artificial rainfall device, and water was supplied from the bottom of the pots. Thereafter, water was supplied from the bottom of the pot when the soil surface was dried in the pot, according to need.
The difference in the sensitivity of rapeseed to pyroxasulfone applied pre-emergence was examined (temperature: 22° C., fluorescent light), and whether or not the transgenic rapeseed plant comprising wheat GST had pyroxasulfone resistance was evaluated in terms of the plant height, the herbicidal symptoms, and the cotyledon growth. Specifically, heights of the plants were measured 2 weeks after seeds sowing of rapeseed and pyroxasulfone application, and the inhibition was assessed by comparison to control plants grown in the absence of pyroxauslfone (n=4 to 12). In FIGS. 37 to 39, “TaGST” stands for a transgenic rapeseed plant comprising the TaQ8GTC0 gene. Values in the table in FIG. 38 are expressed as the mean±standard deviation (n=4 to 12).

Consider `Cn1nc(C(F)(F)F)c(CS(=O)(=O)C2=NOC(C)(C)C2)c1OC(F)F` [Pyroxasulfone, 3-[5-(difluoromethoxy)-1-methyl-3-(trifluoromethyl)pyrazol-4-ylmethylsulfonyl]-4,5-dihydro-5,5-dimethyl-1,2-oxazole], for which the “pyroxasulfone metabolizing activity (C15:0 and VLCFA contents)” value in experiment [1] is recorded as “no pyroxasulfone metabolizing activity”. Moreover, the “pyroxasulfone metabolizing activity (C15:0 and VLCFA contents)” value in experiment [2] is reported as “no pyroxasulfone metabolizing activity”. Moreover, the inhibition at 16 g/ha in experiment [3] (Brassica napus, 336 h, 16 g a.i./ha, 2 weeks after sowing and application, 22° C., read-out: shoot growth inhibition (plant height)) turned out to be 61.9%. In experiment [3] (pre-emergence soil treatment), the “dose at which cotyledon growth was substantially completely inhibited” value is reported as not below 16 g a.i./ha and the “dose at which cotyledons became dark green (herbicidal symptoms)” value is not below 16 g a.i./ha.

These data come from patent US11198710B2, “Transgenic plant having herbicide resistance” (priority 2016, dated 2021).
